Laboratory results reported in US7855228B2, “Antibiotics targeting MreB” (The Board of Trustees of the Leland Stamford Junior …, priority 2005, dated 2010).
Converted amounts (≈) assume the structure as drawn. Where two headings read alike, the source gives them in different places.

What was measured:
[1] = test system: E. coli MG1655; assay: Determination of minimum inhibitory concentration (MIC); type: cell-based; conditions: Escherichia coli, read-out: MIC E. coli
Experimental: (§1) Determination of minimum inhibitory concentration (MIC). MICs were also determined on Mueller Hinton agar plates (0.2% beef extract, 1.75% acid digest of casein, 0.15% soluble starch, 1.5% agar, pH 7.3).
(§2) Determination of MIC Minimal inhibitory concentrations (MICs) were determined using a standard 2-fold serial dilution format on L agar plates. Ten microliters of stationary culture diluted in 0.85% NaCl to 10^6 cells/ml were spotted on per plate. […] MICs were also determined on Mueller Hinton agar plates (0.2% beef extract, 1.75% acid digest of casein, 0.15% soluble starch, 1.5% agar, pH 7.3).

[2] = test system: P. putida NBRC14164; assay: as above; type: cell-based, Pseudomonas putida; conditions: Pseudomonas putida, read-out: MIC P. putida
Experimental: as §1, §2

[3] = test system: S. typhimurium NBRC13245; assay: as above; type: cell-based, Salmonella typhimurium; conditions: Salmonella enterica, read-out: MIC S. typhimurium
Experimental: as §1, §2

[4] = test system: B. subtilis 168; assay: as above; type: cell-based, Bacillus subtilis; conditions: read-out: MIC B. subtilis
Experimental: as §1, §2

[5] = test system: S. aureus subsp. aureus NBRC15035; assay: as above; type: cell-based, Staphylococcus aureus; conditions: Staphylococcus aureus, read-out: MIC S. aureus
Experimental: as §1, §2

[6] = test system: E. coli MG1655; assay: Microscopic observation of cell shape; type: cell-based; conditions: for Effect on E. coli cell morphology (in words): 3×MIC or 300 μg/ml, 16 hrs
Experimental: Microscopic observation. E. coli K-12 strain MG1655 (F^− λ^−) was grown in Lennox broth containing 1% Polypepton, 0.5% yeast extract, 0.5% NaCl, and 0.1% glucose (pH 7.2). Cells spread on a slide glass were treated with methanol for 5 min and covered with poly-L-lysine. The fixed cells were observed by the differential interference contrast system through an Axioskop 2 microscope (Carl Zeiss Co., Ltd., Oberkochen, Germany). To observe the anucleate cells, cells were stained with a 4′,6-diamidino-2-phenylindole (DAPI) solution (5 μg/ml in saline) and then observed by the fluorescence phase-contrast combined method.
The effect of each compound on E. coli cell morphology was next examined.

[7] = test system: E. coli K-12 strain SH3210; assay: Anucleate cell blue assay; type: cell-based
Experimental: Anucleate cell blue assay. The anucleate cell blue assay was carried out as reported previously. Briefly, E. coli K-12 strain SH3210 (ΔtrpE5 his λ pXX747) was grown in a P medium containing 1% Polypepton and 0.5% NaCl (pH 7). Paper disks (φ 8 mm) each soaked with 20 μl of a sample solution were placed on P medium agar plates (1.5% agar) containing 10^4 cells/ml of SH3210 and 40 μg/ml of 5-bromo-4-chloro-3-indolyl β-D-galactoside. The plates were incubated at 42° C. for 24 h, and the development of a blue color and the growth inhibitory zone around the paper disks were evaluated.
Since 1 had originally been found through screening by an anucleate cell blue assay, the effect of each compound was first examined by this assay.

[8] = MG1655, Example 2, methods as in Example 1
[9] = NBRC14164, Example 2, methods as in Example 1
[10] = Example 2, methods as in Example 1
[11] = Bacillus subtilis, 168, Example 2, methods as in Example 1
[12] = NBRC15035, Example 2, methods as in Example 1
[13] = MG1655, Table 1, E. coli MG1655
[14] = Bacillus subtilis, 168, Table 1, B. subtilis 168
[15] = E. coli MG1655 treated at 3×MIC (*), 30° C., 16 h

Structure (SMILES) | MIC [1, 8] [µg/mL] | MIC [2, 9] [µg/mL] | MIC [3, 10] [µg/mL] | MIC [4, 11] [µg/mL] | MIC [5, 12] [µg/mL] | Shape [6, 10] | Growth inhibitory zone and blue zone in the anucleate cell blue assay (in words) [7] | MIC [1, 13] [µg/mL] | MIC ([2]; NBRC14164, Table 1, NBRC14164) [µg/mL] | MIC ([3]; Table 1, NBRC13245) [µg/mL] | MIC [4, 14] [µg/mL] | MIC ([5]; NBRC15035, Table 1, NBRC15035) [µg/mL] | Effect on E. coli cell morphology (in words) ([6]; 30° C.) | Shape [6, 15]
O=C(N[C@H](CO)[C@H](O)c1ccc([N+](=O)[O-])cc1)C(Cl)Cl [CP, reference compound] | 6.25 (≈ 19.3 µM) | 50 (≈ 155 µM) | 6.25 (≈ 19.3 µM) | 3.13 (≈ 9.69 µM) | 12.5 (≈ 38.7 µM) | Rod | – | – | – | – | – | – | – | –
N=C(N)SCc1ccc(Cl)cc1 [Compound 2, S-(4-chlorobenzyl)isothiourea] | 3.13 (≈ 15.6 µM) | > 100 | 3.13 (≈ 15.6 µM) | > 100 | > 100 | Sphere | deep blue zone around a growth inhibitory zone almost comparable to those of 1 | 3.13 (≈ 15.6 µM) | > 100 | 3.13 (≈ 15.6 µM) | > 100 | > 100 | induced a spherical cell shape | Sphere*
N=C(N)SCc1ccccc1Br [Compound 2-Br] | 50 (≈ 204 µM) | > 100 | 50 (≈ 204 µM) | > 100 | > 100 | Sphere | – | – | – | – | – | – | – | –
N=C(N)SCc1ccccc1C(F)(F)F [Compound 2-CF3] | > 100 | > 100 | > 100 | > 100 | > 100 | Sphere | – | – | – | – | – | – | – | –
N=C(N)SCc1ccccc1Cl [Compound 2-Cl] | 12.5 (≈ 62.3 µM) | > 100 | 25 (≈ 125 µM) | > 100 | > 100 | Sphere | – | – | – | – | – | – | – | –
N=C(N)SCc1ccccc1F [Compound 2-F] | 25 (≈ 136 µM) | > 100 | 25 (≈ 136 µM) | > 100 | > 100 | Sphere | – | – | – | – | – | – | – | –
N=C(N)SCc1ccccc1 [Compound 3, S-benzylisothiourea] | 100 (≈ 602 µM) | > 100 | > 100 | > 100 | > 100 | Sphere | blue zone just around the paper disk, but only a marginal growth inhibitory zone was detected | 100 (≈ 602 µM) | > 100 | > 100 | > 100 | > 100 | induced a spherical cell shape | Sphere*
N=C(N)SCc1cccc(C(F)(F)F)c1 [Compound 3-CF3] | > 100 | > 100 | > 100 | > 100 | > 100 | Sphere | – | – | – | – | – | – | – | –
N=C(N)SCc1cccc(Cl)c1 [Compound 3-Cl] | 50 (≈ 249 µM) | > 100 | > 100 | 50 (≈ 249 µM) | > 100 | Sphere | – | – | – | – | – | – | – | –
N=C(N)SCc1cccc(F)c1 [Compound 3-F] | 50 (≈ 271 µM) | > 100 | > 100 | 50 (≈ 271 µM) | > 100 | Sphere | – | – | – | – | – | – | – | –
N=C(N)SCc1ccc(Br)cc1 [Compound 4-Br, S-(4-Bromo-benzyl)-isothiourea] | 3.13 (≈ 12.8 µM) | > 100 | 6.25 (≈ 25.5 µM) | > 100 | > 100 | Sphere | – | – | – | – | – | – | – | –
N=C(N)SCc1ccc(C(F)(F)F)cc1 [Compound 4-CF3, S-(4-Trifluoromethyl-benzyl)-isothiourea] | 50 (≈ 213 µM) | > 100 | > 100 | > 100 | > 100 | Sphere | – | – | – | – | – | – | – | –
Cc1ccc(CSC(=N)N)cc1 [Compound 4-CH3, S-(4-methyl-benzyl)-isothiourea] | 25 (≈ 139 µM) | > 100 | 50 (≈ 277 µM) | > 100 | > 100 | Sphere | – | – | – | – | – | – | – | –
N=C(N)SCc1ccc(F)cc1 [Compound 4-F, S-(4-Fluoro-benzyl)-isothiourea] | 12.5 (≈ 67.8 µM) | > 100 | 12.5 (≈ 67.8 µM) | 50 (≈ 271 µM) | 100 (≈ 543 µM) | Sphere | – | – | – | – | – | – | – | –
N=C(N)SCc1ccc(I)cc1 [Compound 4-I, S-(4-Iodo-benzyl)-isothiourea] | 12.5 (≈ 42.8 µM) | > 100 | 25 (≈ 85.6 µM) | > 100 | > 100 | Sphere | – | – | – | – | – | – | – | –
COc1ccc(CSC(=N)N)cc1 [Compound 4-MeO] | > 100 | > 100 | > 100 | > 100 | > 100 | Sphere | – | – | – | – | – | – | – | –
N=C(N)SCc1ccc([N+](=O)[O-])cc1 [Compound 4-NO2, S-(4-Nitro-benzyl)-isothiourea] | 25 (≈ 118 µM) | > 100 | 50 (≈ 237 µM) | 25 (≈ 118 µM) | > 100 | Sphere | – | – | – | – | – | – | – | –
CC1(C)S[C@@H]2[C@H](NC(=O)c3ccccc3)C(=O)N2[C@H]1C(=O)O [PCG, reference compound] | 50 (≈ 156 µM) | > 100 | 12.5 (≈ 39 µM) | 0.0122 (≈ 0.0381 µM) | 0.0977 (≈ 0.305 µM) | Fil | – | – | – | – | – | – | – | –
I.Nc1nc(-c2ccccc2)cs1 [TZ, reference compound] | > 100 | > 100 | > 100 | > 100 | > 100 | Rod | – | – | – | – | – | – | – | –
N=C(N)SCc1c(F)c(F)c(F)c(F)c1F [pentaF] | > 100 | > 100 | > 100 | > 100 | > 100 | Sphere | – | – | – | – | – | – | – | –
